According to ChEMBL document CHEMBL5380860, “Design, Synthesis, and Antitumor Activity of Potent and Selective EGFR L858R/T790M Inhibitors and Identification of a Combination Therapy to Overcome Acquired Resistance in Models of Non-small-cell Lung Cancer” (J Med Chem, 2023):
The source made the active and inactive calls. The calls are words filed in the database; no cut-off is given here.

Assays:
[1] = tested on: Epidermal growth factor receptor (Homo sapiens), P00533 [L858R,T790M]; assay: Inhibition of EGFR L858R/T790M mutant in N-(3-((6-Fluoro-2-((4-(4-methylpiperazin-1-yl)phenyl)amino)quinazolin-4-yl)amino)phenyl)acrylamide-resistant human NCI-H1975 cells assessed as inhibition of EGF-induced AKT phosphorylation at Ser473 residue pretreated with compound and ACK1 inhibitor, Dasatinib for 4 hrs followed by incubation with EGF for 10 mins by western blot analysis; format: cell-based; conditions: time 250.0 min
[2] = tested on: Epidermal growth factor receptor (Homo sapiens), P00533 [L858R,T790M]; assay: Covalent binding affinity to EGFR L858R/T790M mutant (unknown origin) assessed as covalent adduct formation at Cys797 residue at protein to compound concentration ratio of 1:4 incubated for 1 hr and measured following enzymatic hydrolysis by LC-MS analysis
[3] = Clearance in Sprague-Dawley rat at 1 mg/kg, iv by LC-MS analysis; format: ADME, organism-based; conditions: in vivo
NCI-H1975 [4] = assay: Inhibition of cell migration in human NCI-H1975 cells incubated for 48 hrs by scratch wound healing assay; format: functional, cell-based; conditions: dose 0.1-10 µM
A-431 [5] = assay: Inhibition of clonogenicity in human A-431 cells assessed as inhibition of colony formation at 0.1 to 10 uM incubated for 14 days by crystal violet staining based analysis; format: toxicity, cell-based; conditions: a-431, 336 h, dose 0.1-10 µM, time 14 day
NCI-H1975 [6] = assay: Antitumor activity against N-(3-((6-Fluoro-2-((4-(4-methylpiperazin-1-yl)phenyl)amino)quinazolin-4-yl)amino)phenyl)acrylamide-resistant human NCI-H1975 cells xenografted in BALB/c mouse assessed as inhibition of tumor growth at 20 mg/kg/day, ip; format: functional, organism-based
NCI-H1975 [7] = assay: Antitumor activity against N-(3-((6-Fluoro-2-((4-(4-methylpiperazin-1-yl)phenyl)amino)quinazolin-4-yl)amino)phenyl)acrylamide-resistant human NCI-H1975 cells xenografted in BALB/c mouse assessed as inhibition of tumor weight at 20 mg/kg/day, ip in presence of ACK1 inhibitor, dasatinib; format: functional, organism-based
NCI-H1975 [8] = assay: Antiproliferative activity against N-(3-((6-Fluoro-2-((4-(4-methylpiperazin-1-yl)phenyl)amino)quinazolin-4-yl)amino)phenyl)acrylamide-resistant human NCI-H1975 cells assessed as reduction in cell viability at compound:Bosutinib concentration ratio of 3:1 to 1:3 measured after 72 hrs in presence of ACK1 inhibitor, Bosutinib by MTT assay; format: functional, cell-based
[9] = biological target: T1, Tyrosine-protein kinase Tec (Homo sapiens, UniProt P42680); assay: Inhibition of human wild type partial length TEC kinase (L341 to D620 residues) expressed in bacterial expression system by KINOMEscan analysis
T1 sequence (P42680 whole entry): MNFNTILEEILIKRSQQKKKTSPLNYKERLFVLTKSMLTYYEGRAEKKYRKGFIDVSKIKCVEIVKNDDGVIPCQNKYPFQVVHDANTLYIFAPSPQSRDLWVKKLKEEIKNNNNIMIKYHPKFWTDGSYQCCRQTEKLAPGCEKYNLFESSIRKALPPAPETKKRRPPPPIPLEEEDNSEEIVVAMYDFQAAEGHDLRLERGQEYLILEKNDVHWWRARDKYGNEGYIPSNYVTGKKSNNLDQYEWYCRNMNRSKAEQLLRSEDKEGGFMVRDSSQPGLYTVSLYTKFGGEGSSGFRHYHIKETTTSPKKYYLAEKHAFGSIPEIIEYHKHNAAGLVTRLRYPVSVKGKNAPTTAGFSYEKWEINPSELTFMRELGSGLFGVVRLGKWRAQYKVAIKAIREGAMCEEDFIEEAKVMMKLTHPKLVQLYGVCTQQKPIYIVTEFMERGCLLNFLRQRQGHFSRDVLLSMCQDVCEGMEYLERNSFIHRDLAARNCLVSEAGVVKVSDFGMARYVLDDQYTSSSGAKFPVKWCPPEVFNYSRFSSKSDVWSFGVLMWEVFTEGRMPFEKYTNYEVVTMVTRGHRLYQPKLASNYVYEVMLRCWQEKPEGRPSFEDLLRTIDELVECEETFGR

[10] = biological target: T2, Epidermal growth factor receptor (Homo sapiens, UniProt P00533); assay: Inhibition of wild type EGFR in human A549 cells assessed as inhibition of EGF-induced ERK-1/2 phosphorylation at 10 uM pretreated with compound for 4 hrs followed by incubation with EGF for 10 mins by western blot analysis; format: toxicity, cell-based; conditions: a549, 4.167 h, time 250 min
[11] = biological target: T2, Epidermal growth factor receptor; assay: Inhibition of wild type EGFR in human A549 cells assessed as inhibition of EGF-induced Akt phosphorylation at Ser473 residue at 10 uM pretreated with compound for 4 hrs followed by incubation with EGF for 10 mins by western blot analysis; format: toxicity, cell-based; conditions: a549, 4.167 h, time 250 min
NCI-H1975 [12] = assay: Antitumor activity against human NCI-H1975 cells xenografted in ip dosed BALB/c mouse assessed as decrease in tumor weight; format: functional, organism-based; conditions: dose 5-20 mg/kg/day
A549 = assay: Induction of apoptosis in human A549 cells assessed as increase in caspase-3/7 activity at 0.1 to 10 uM incubated for 24 hrs by Caspase-Glo reagent based luminescence analysis; format: toxicity, cell-based; conditions: a549, 24 h, dose 0.1-10 µM
[13] = biological target: Proto-oncogene tyrosine-protein kinase Src (Homo sapiens, UniProt P12931); assay: Inhibition of human wild type partial length Src kinase (L240 to L536 residues) expressed in bacterial expression system assessed as residual activity at 1 uM by KINOMEscan analysis
Chain of Proto-oncogene tyrosine-protein kinase Src (P12931 2-536 limits assumed): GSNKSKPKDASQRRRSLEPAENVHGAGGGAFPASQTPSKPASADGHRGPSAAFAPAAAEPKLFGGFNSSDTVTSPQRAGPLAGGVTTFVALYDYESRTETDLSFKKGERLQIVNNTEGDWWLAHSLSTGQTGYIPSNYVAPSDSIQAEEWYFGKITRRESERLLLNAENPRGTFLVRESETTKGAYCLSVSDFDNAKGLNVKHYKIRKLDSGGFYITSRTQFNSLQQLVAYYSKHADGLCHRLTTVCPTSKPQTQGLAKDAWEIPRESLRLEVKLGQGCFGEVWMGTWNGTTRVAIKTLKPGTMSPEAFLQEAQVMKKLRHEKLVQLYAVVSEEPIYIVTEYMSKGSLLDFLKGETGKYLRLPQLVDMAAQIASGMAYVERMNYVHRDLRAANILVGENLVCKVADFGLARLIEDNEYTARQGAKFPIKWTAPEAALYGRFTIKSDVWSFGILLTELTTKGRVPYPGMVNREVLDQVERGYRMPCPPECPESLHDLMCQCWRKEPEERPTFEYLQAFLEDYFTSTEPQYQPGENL

[14] = tested on: Epidermal growth factor receptor (Homo sapiens), P00533 [T790M]; assay: Inhibition of human partial length EGFR (R669 to G1022 residues) T790M mutant expressed in mammalian expression system assessed as residual activity at 1 uM by KINOMEscan analysis
A-431 [15] = assay: Induction of apoptosis in human A-431 cells assessed as induction of caspase-3 cleavage at 0.1 to 10 uM pretreated with compound for 4 hrs followed by incubation with EGF for 10 mins by western blot analysis; format: toxicity, cell-based; conditions: a-431, 4.167 h, dose 0.1-10 µM, time 250 min
[16] = biological target: T2, Epidermal growth factor receptor; assay: Inhibition of wild type EGFR in human A549 cells assessed as inhibition of EGF-induced EGFR phosphorylation at Tyr1068 residue at 10 uM pretreated with compound for 4 hrs followed by incubation with EGF for 10 mins by western blot analysis; format: toxicity, cell-based; conditions: a549, 4.167 h, time 250 min
A-431 [17] = assay: Induction of apoptosis in human A-431 cells assessed as induction of PARP cleavage at 0.1 to 10 uM pretreated with compound for 4 hrs followed by incubation with EGF for 10 mins by western blot analysis; format: toxicity, cell-based; conditions: a-431, 4.167 h, dose 0.1-10 µM, time 250 min
NCI-H1975 [18] = assay: Inhibition of clonogenicity in human NCI-H1975 cells assessed as inhibition of colony formation incubated for 14 days by crystal violet staining based analysis; format: functional, cell-based; conditions: dose 0.1-10 µM, time 14.0 day
Mus musculus [19] = assay: In vivo inhibition of EGFR L858R/T790M mutant in N-(3-((6-Fluoro-2-((4-(4-methylpiperazin-1-yl)phenyl)amino)quinazolin-4-yl)amino)phenyl)acrylamide-resistant human NCI-H1975 cells xenografted BALB/c mouse assessed as inhibition of AKT phosphorylation at Ser473 residue in tumor at 20 mg/kg/day, ip in presence of ACK1 inhibitor, dasatinib by immunoblot analysis; format: functional, organism-based
Mus musculus [20] = species: Mus musculus; conditions: BALB/c, dose 10.0 mg/kg/day, route po
Mus musculus [21] = species: Mus musculus; conditions: BALB/c, dose 10.0 mg/kg/day, route po; remark: listed apart in the source
NCI-H1975 [22] = assay: Antitumor activity against human NCI-H1975 cells xenografted in BALB/c mouse assessed as tumor regression at 10 mg/kg/day, po; format: functional, organism-based

For `C=CC(=O)Nc1cccc(Nc2nc(Nc3ccc(N4CCN(C)CC4)cc3)nc3ccc(F)cc23)c1`, which inhibition [1] is on record?
The inhibition was “Active”.

And the Activity [2]?
The Activity was “Active”.

What about the clearance [3] of the same molecule?
Its clearance is 16.1 mL/min/kg.

And the inhibition (NCI-H1975 [4])?
The inhibition was “Dose-Dependent Effect”.

What about the Activity (A-431 [5]) of the same molecule?
The Activity was “Non-Toxic”.

What about the Activity (NCI-H1975 [6]) of the same molecule?
The Activity was “inactive”.

And the Activity (NCI-H1975 [7])?
Its Activity is “Active”.

And the Activity (NCI-H1975 [8])?
Its Activity is “Active”.

And the IC50 [9]?
Its IC50 is 0.518 µM.

What about the “inhibition (INH)” value [10] of the same molecule?
Its value is “Not Active”.

And the “inhibition (INH)” value [11]?
The value was “Not Active”.

What about the Activity (NCI-H1975 [12]) of the same molecule?
Its Activity is “Dose-Dependent Effect”.

And the Activity (A549)?
The Activity was “Non-Toxic”.

And the Activity [13]?
Its Activity is 20%.

And the Activity [14]?
Its Activity is 3%.

What about the Activity (A-431 [15]) of the same molecule?
Its Activity is “Non-Toxic”.

And the “inhibition (INH)” value [16]?
Its value is “Not Active”.

And the Activity (A-431 [17])?
The Activity was “Non-Toxic”.

What about the inhibition (NCI-H1975 [18]) of the same molecule?
Its inhibition is “Dose-Dependent Effect”.

And the inhibition (Mus musculus [19])?
The inhibition was “Active”.

With `C=CC(=O)Nc1cc(Nc2nccc(-c3cn(C)c4ccccc34)n2)c(OC)cc1N(C)CCN(C)C` [OSIMERTINIB] as the molecule, how does the inhibition (Mus musculus [20]) read?
Its inhibition is “Active”.

What about the inhibition (Mus musculus [21]) of the same molecule?
Its inhibition is “Active”.

And the Activity (NCI-H1975 [22])?
The Activity was “Active”.
